Measurements taken from patent EP1172442A1, “VITAMIN D DERIVATIVES AND PROCESS FOR PRODUCING THE SAME” (MERCIAN CORPORATION, priority 1999, dated 2000).

Tested on: DBP (rat serum diluted with a barbital acetate buffer)
Test: Binding ability to vitamin D-bound protein (DBP), competitive protein binding assay (CPBA), competition with 3H-25(OH)D3
Details: relative value of B/B0 50% value, 1,25(OH)2D3 taken to be 100; 4°C for 1 hour
Procedure: The binding ability to DBP was evaluated using the following competitive protein binding assay (CPBA). 1,25(OH)2D3 and each specimen were diluted to concentrations from 10^-11 M to 10^-5 M. 50 µL of a [26,27-^3H]-25-hydroxyvitamin D3 (^3H-25(OH)D3) solution and 100 µL of 1,25(OH)2D3 or each specimen solution were placed in a small test tube, and 1 mL of a DBP (rat serum diluted with a barbital acetate buffer) solution was added and mixed, and then allowed to stand at 4°C for 1 hour. Then, after 0.5 mL of a dextran-active carbon suspension was added and mixed, the mixture was allowed to stand on ice for 10 minutes, ^3H-25(OH)D3 unbound to DBP was removed by centrifugation at 3000 rpm for 15 minutes, and then the quantity of ^3H-25(OH)D3 bound to DBP was measured using 1 mL of the supernatant.
The binding ability to DBP of each specimen was evaluated by calculating and comparing the B/B0 50% value.

SMILES	Binding ability to DBP
CC(CO)CCC[C@@H](C)[C@H]1CC[C@H]2/C(=C/C=C3/C[C@@H](O)C[C@H](O)/C3=C\F)CCC[C@]12C (stereo partly drawn) [Example 4(3), 19-fluoro-1α,26-dihydroxyvitamin D3]	35.257
C=C1/C(=C\C=C2/CCC[C@]3(C)[C@@H]([C@H](C)CCCC(C)CO)CC[C@@H]23)C[C@@H](O)C[C@@H]1O (stereo partly drawn) [Example 2, 1α,26-dihydroxyvitamin D3]	168.529
C[C@H](CCCC(C)(C)O)[C@H]1CC[C@H]2/C(=C/C=C3/C[C@@H](O)C[C@H](O)/C3=C\F)CCC[C@]12C [Example 4(2), 19-fluoro-1α,25-dihydroxyvitamin D3]	35.792
C=C1CC[C@H](O)C(F)(F)/C1=C/C=C1\CCC[C@]2(C)[C@@H]([C@H](C)CCC(O)C(C)C)CC[C@@H]12 (stereo partly shown) [Example 5(1), 4,4-difluoro-24-hydroxyvitamin D3]	16.633
C=C1/C(=C\C=C2/CCC[C@]3(C)[C@@H]([C@H](C)CCCC(C)(C)O)CC[C@@H]23)C(F)(F)[C@@H](O)C[C@@H]1O [Example 6(2), 4,4-difluoro-1α,25-dihydroxyvitamin D3]	26.684
C=C1C[C@@H](O)[C@H](O)C/C1=C/C=C1\CCC[C@]2(C)[C@@H]([C@H](C)CCCC(C)(C)O)CC[C@@H]12 [Example 1(1), 2α,25-dihydroxyvitamin D3]	11433.718
C=C1CC[C@H](O)C(F)(F)/C1=C/C=C1\CCC[C@]2(C)[C@@H]([C@H](C)CCCC(C)CO)CC[C@@H]12 (stereo partly shown) [Example 5(3), 4,4-Difluoro-26-hydroxyvitamin D3]	28.106
CC(C)C(O)CC[C@@H](C)[C@H]1CC[C@H]2/C(=C/C=C3/C[C@@H](O)C[C@H](O)/C3=C\F)CCC[C@]12C (stereo partly drawn) [Example 4(1), 19-fluoro-1α,24-dihydroxyvitamin D3]	23.665

Tested on: VDR (chicken small intestine receptor)
Test: Binding ability to vitamin D receptor (VDR), radio receptor assay (RRA), competition with 3H-1,25(OH)2D3
Details: relative value of B/B0 50% value, 1,25(OH)2D3 taken to be 100; 4°C for 3 hours
Procedure: Binding ability to VDR was examined by the following radio receptor assay (RRA) method.
1,25(OH)2D3 and each specimen were serially diluted at from 10^-11 M to 10^-6 M. 20µL of a [26,27-^3H]-1,25-dihydroxyvitamin D3 (^3H-1,25(OH)2D3) solution and 60 µL of 1,25(OH)2D3 or each specimen solution were added in a small test tube, and 0.5 mL of a VDR (chicken small intestine receptor) solution was added and mixed, and then allowed to stand at 4°C for 3 hours. Then, after 0.125 mL of a dextran-active carbon suspension was added and mixed, the mixture was allowed to stand on ice for 30 minutes, ^3H-1,25(OH)2D3 unbound to VDR was removed by centrifugation at 3000 rpm for 15 minutes, and then the quantity of ^3H-1,25 (OH)2D3 bound to VDR was measured using 0.5 mL of the supernatant.
The binding ability to VDR of each specimen was evaluated by calculating and comparing the B/B0 50% value. […] The VDR binding ability was shown in Table 1 as a relative value of each specimen when B/B0 50% value of 1,25(OH)2D3 is taken to be 100.

SMILES	Binding ability to VDR
CC(CO)CCC[C@@H](C)[C@H]1CC[C@H]2/C(=C/C=C3/C[C@@H](O)C[C@H](O)/C3=C\F)CCC[C@]12C (stereo partly drawn) [Example 4(3), 19-fluoro-1α,26-dihydroxyvitamin D3]	29.129
C=C1/C(=C\C=C2/CCC[C@]3(C)[C@@H]([C@H](C)CCCC(C)CO)CC[C@@H]23)C[C@@H](O)C[C@@H]1O (stereo partly drawn) [Example 2, 1α,26-dihydroxyvitamin D3]	107.557
C[C@H](CCCC(C)(C)O)[C@H]1CC[C@H]2/C(=C/C=C3/C[C@@H](O)C[C@H](O)/C3=C\F)CCC[C@]12C [Example 4(2), 19-fluoro-1α,25-dihydroxyvitamin D3]	62.386
C=C1CC[C@H](O)C(F)(F)/C1=C/C=C1\CCC[C@]2(C)[C@@H]([C@H](C)CCC(O)C(C)C)CC[C@@H]12 (stereo partly shown) [Example 5(1), 4,4-difluoro-24-hydroxyvitamin D3]	81.860
C=C1/C(=C\C=C2/CCC[C@]3(C)[C@@H]([C@H](C)CCCC(C)(C)O)CC[C@@H]23)C(F)(F)[C@@H](O)C[C@@H]1O [Example 6(2), 4,4-difluoro-1α,25-dihydroxyvitamin D3]	92.716
C=C1C[C@@H](O)[C@H](O)C/C1=C/C=C1\CCC[C@]2(C)[C@@H]([C@H](C)CCCC(C)(C)O)CC[C@@H]12 [Example 1(1), 2α,25-dihydroxyvitamin D3]	32.480
C=C1CC[C@H](O)C(F)(F)/C1=C/C=C1\CCC[C@]2(C)[C@@H]([C@H](C)CCCC(C)CO)CC[C@@H]12 (stereo partly shown) [Example 5(3), 4,4-Difluoro-26-hydroxyvitamin D3]	34.067
CC(C)C(O)CC[C@@H](C)[C@H]1CC[C@H]2/C(=C/C=C3/C[C@@H](O)C[C@H](O)/C3=C\F)CCC[C@]12C (stereo partly drawn) [Example 4(1), 19-fluoro-1α,24-dihydroxyvitamin D3]	72.878
